According to PubChem BioAssay AID248 (DTP/NCI, 2004):
“And” between values parts separate entries of the source, which are not always exact repeats. Equal values may be shown once. Toxic doses and inconclusive results are not listed. No stated cut-off is given here; in the data, active means T/C of 150% or more; inactive means T/C below 125%.

Test system: L1210 leukemia ip in BDF1 mice, survival T/C
Assay: NCI In Vivo Anticancer Drug Screen. Data for tumor model L1210 Leukemia (intraperitoneal) in B6D2F1 (BDF1) mice
Details: endpoint: mean survival time, higher = longer survival
In short: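 Mice bearing the transplanted tumor received compound or vehicle. Survival of the treated group was divided by that of the vehicle-treated control group to give the ratio.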

[1] = dose: 100.0 mg/kg/injection, schedule: Q01DX001 (ip), vehicle: Klucel (hydroxypropylcellulose) (HPC)
[2] = dose: 100.0 mg/kg/injection, schedule: Q01DX009 (ip), vehicle: Klucel (hydroxypropylcellulose) (HPC)
[3] = dose: 100.0 mg/kg/injection, schedule: Q04DX002 (ip), vehicle: Klucel (hydroxypropylcellulose) (HPC)
[4] = dose: 100.0 mg/kg/injection, schedule: Q04DX003 (ip), vehicle: Klucel (hydroxypropylcellulose) (HPC)
[5] = dose: 200.0 mg/kg/injection, schedule: Q01DX001 (ip), vehicle: Klucel (hydroxypropylcellulose) (HPC)
[6] = dose: 200.0 mg/kg/injection, schedule: Q01DX009 (ip), vehicle: Klucel (hydroxypropylcellulose) (HPC)
[7] = dose: 200.0 mg/kg/injection, schedule: Q04DX002 (ip), vehicle: Klucel (hydroxypropylcellulose) (HPC)
[8] = dose: 200.0 mg/kg/injection, schedule: Q04DX003 (ip), vehicle: Klucel (hydroxypropylcellulose) (HPC)
[9] = dose: 400.0 mg/kg/injection, schedule: Q01DX001 (ip), vehicle: Klucel (hydroxypropylcellulose) (HPC)
[10] = dose: 400.0 mg/kg/injection, schedule: Q01DX009 (ip), vehicle: Klucel (hydroxypropylcellulose) (HPC)
[11] = dose: 400.0 mg/kg/injection, schedule: Q04DX002 (ip), vehicle: Klucel (hydroxypropylcellulose) (HPC)
[12] = dose: 400.0 mg/kg/injection, schedule: Q04DX003 (ip), vehicle: Klucel (hydroxypropylcellulose) (HPC)
[13] = dose: 100.0 mg/kg/injection, schedule: Q04DX003 (ip), vehicle: saline with Tween-80
[14] = dose: 200.0 mg/kg/injection, schedule: Q04DX003 (ip), vehicle: saline with Tween-80
[15] = dose: 400.0 mg/kg/injection, schedule: Q04DX003 (ip), vehicle: saline with Tween-80
[16] = dose: 50.0 mg/kg/injection, schedule: Q01DX009 (ip), vehicle: saline
[17] = dose: 100.0 mg/kg/injection, schedule: Q01DX009 (ip), vehicle: saline
[18] = dose: 200.0 mg/kg/injection, schedule: Q01DX009 (ip), vehicle: saline
[19] = dose: 100.0 mg/kg/injection, schedule: Q01DX001 (ip), vehicle: saline
[20] = dose: 200.0 mg/kg/injection, schedule: Q01DX001 (ip), vehicle: saline

Measured: T/C

Cc1ccc(C(C)C)c(OC(=O)Nc2ccc(Cl)cc2)c1
inactive: [1] 95 % of control | [2] 96 % of control and 103 % of control | [3] 98 % of control and 102 % of control | [4] 100 % of control and 120 % of control | [5] 88 % of control | [6] 98 % of control and 100 % of control | [7] 102 % of control | [8] 104 % of control and 124 % of control | [9] 88 % of control | [10] 96 % of control and 91 % of control | [11] 94 % of control and 98 % of control | [12] 96 % of control

CCOC(=O)c1nc2cc(C)c(C)cc2[nH]c1=O
inactive: [13] 92 % of control | [14] 99 % of control | [15] 93 % of control

O=C1NCC2(O1)c1ccccc1-c1ccccc12
inactive: dose: 25.6 mg/kg/injection, schedule: Q04DX002 (ip), vehicle: saline with Tween-80 92 % of control | dose: 64.0 mg/kg/injection, schedule: Q04DX002 (ip), vehicle: saline with Tween-80 98 % of control | dose: 160.0 mg/kg/injection, schedule: Q04DX002 (ip), vehicle: saline with Tween-80 113 % of control

C#CC(O)(c1ccccc1)c1cc(OC)c(OC)cc1OC (stereo unspecified)
inactive: [13] 101 % of control | [14] 97 % of control | [15] 94 % of control

O=c1[nH]cnc2c1ncn2CCCCc1ccccc1
inactive: [3] 108 % of control | [7] 101 % of control | [11] 105 % of control

N#Cc1cnc(N)c(C#N)c1
inactive: dose: 74.0 mg/kg/injection, schedule: Q01DX009 (ip), vehicle: Klucel (hydroxypropylcellulose) (HPC) 98 % of control | dose: 150.0 mg/kg/injection, schedule: Q01DX009 (ip), vehicle: Klucel (hydroxypropylcellulose) (HPC) 100 % of control

CCOc1ccc(N2C(C#N)c3ccccc3OC2c2ccccc2O)cc1 (stereo unspecified)
inactive: [2] 97 % of control | [6] 97 % of control | [10] 101 % of control

CNc1c(C)cccc1C
inactive: dose: 50.0 mg/kg/injection, schedule: Q04DX003 (ip), vehicle: Klucel (hydroxypropylcellulose) (HPC) 105 % of control | [1] 104 % of control | [4] 94 % of control | [5] 102 % of control | [8] 101 % of control | [9] 107 % of control

COc1ccc(NC(=O)Nc2ccc(SC)cc2)c(Cl)c1
inactive: [2] 107 % of control | [6] 93 % of control | [10] 104 % of control

CCN(CC)CCCC#CCN1CCOCC1
inactive: [16] 101 % of control | [17] 93 % of control | dose: 100.0 mg/kg/injection, schedule: Q04DX003 (ip), vehicle: saline 103 % of control | [18] 93 % of control | dose: 200.0 mg/kg/injection, schedule: Q04DX003 (ip), vehicle: saline 109 % of control

CCCCCCCCCCOc1ccccc1C(=O)NCCN1CCCC1
inactive: dose: 15.0 mg/kg/injection, schedule: Q01DX015 (ip), vehicle: saline 88 % of control | dose: 30.0 mg/kg/injection, schedule: Q01DX015 (ip), vehicle: saline 91 % of control | dose: 60.0 mg/kg/injection, schedule: Q01DX015 (ip), vehicle: saline 91 % of control | dose: 120.0 mg/kg/injection, schedule: Q01DX015 (ip), vehicle: saline 88 % of control

COc1cc(NCCS(C)(=O)=O)ccc1C(=O)Nc1ccccc1
inactive: [2] 105 % of control | [4] 97 % of control | [6] 97 % of control | [8] 94 % of control | [10] 101 % of control | [12] 94 % of control

ClC1(Cl)C2(c3ccccc3)OC(c3ccccc3)(c3ccccc32)C1(Cl)Cl
inactive: [3] 97 % of control | [7] 97 % of control | [11] 102 % of control

NC(N)=Nc1nc(N)nc(N)n1
inactive: dose: 50.0 mg/kg/injection, schedule: Q01DX009 (ip), vehicle: saline with Tween-80 108 % of control

NC1(c2ccccc2)CCCCC1
inactive: dose: 3.12 mg/kg/injection, schedule: Q01DX009 (ip), vehicle: saline 110 % of control | dose: 6.25 mg/kg/injection, schedule: Q01DX009 (ip), vehicle: saline 104 % of control | dose: 12.5 mg/kg/injection, schedule: Q01DX009 (ip), vehicle: saline 105 % of control | dose: 25.0 mg/kg/injection, schedule: Q01DX009 (ip), vehicle: saline 103 % of control | dose: 25.0 mg/kg/injection, schedule: Q04DX003 (ip), vehicle: saline 98 % of control | [16] 105 % of control | dose: 50.0 mg/kg/injection, schedule: Q04DX003 (ip), vehicle: saline 101 % of control

CC(N(N=O)c1ccccc1)S(=O)(=O)O (stereo unspecified)
inactive: [19] 104 % of control | [17] 92 % of control | [20] 96 % of control | [18] 99 % of control | dose: 400.0 mg/kg/injection, schedule: Q01DX001 (ip), vehicle: saline 98 % of control

CCCCC(=O)c1cc(OC)cc(OC)c1
inactive: dose: 50.0 mg/kg/injection, schedule: Q01DX001 (ip), vehicle: other 109 % of control | [1] 95 % of control | dose: 100.0 mg/kg/injection, schedule: Q01DX001 (ip), vehicle: other 102 % of control | [2] 97 % of control | [5] 95 % of control | dose: 200.0 mg/kg/injection, schedule: Q01DX001 (ip), vehicle: other 104 % of control | [6] 96 % of control | [9] 98 % of control | dose: 400.0 mg/kg/injection, schedule: Q01DX001 (ip), vehicle: other 91 % of control | [10] 100 % of control

N#C/C(=C/c1ccc(O)cc1)C(=O)O
inactive: [4] 96 % of control | [8] 94 % of control | [12] 94 % of control

CNC(=O)OCC(Cl)(Cl)Cl
inactive: [2] 97 % of control | [4] 96 % of control | [6] 98 % of control | [8] 100 % of control | [10] 95 % of control | [12] 100 % of control

O=[N+]([O-])c1ccccc1N1N=NC2CC/C(=C\c3ccc(Cl)cc3)C21N1CCOCC1 (stereo unspecified)
inactive: dose: 100.0 mg/kg/injection, schedule: Q04DX002 (ip), vehicle: saline 108 % of control | dose: 200.0 mg/kg/injection, schedule: Q04DX002 (ip), vehicle: saline 89 % of control | dose: 400.0 mg/kg/injection, schedule: Q04DX002 (ip), vehicle: saline 92 % of control

COC(=O)N1C(C)=CC=CC=C1C
inactive: dose: 12.5 mg/kg/injection, schedule: Q04DX002 (ip), vehicle: Klucel (hydroxypropylcellulose) (HPC) 94 % of control | dose: 25.0 mg/kg/injection, schedule: Q04DX002 (ip), vehicle: Klucel (hydroxypropylcellulose) (HPC) 88 % of control | dose: 50.0 mg/kg/injection, schedule: Q04DX002 (ip), vehicle: Klucel (hydroxypropylcellulose) (HPC) 98 % of control | [3] 100 % of control

Nc1ncnc2c1ncn2C1SC(CO)C(O)C1O (stereo unspecified)
inactive: dose: 50.0 mg/kg/injection, schedule: Q01DX001 (ip), vehicle: saline 93 % of control and 103 % of control | [19] 102 % of control and 105 % of control | dose: 100.0 mg/kg/injection, schedule: Q01DX005 (ip), vehicle: saline 108 % of control and 95 % of control | [20] 104 % of control and 100 % of control | dose: 200.0 mg/kg/injection, schedule: Q01DX005 (ip), vehicle: saline 109 % of control and 95 % of control

CC12CCC3c4ccc(Oc5ccc(N)cc5)cc4CCC3C1CCC2=O (stereo unspecified)
inactive: dose: 100.0 mg/kg/injection, schedule: Q01DX001 (sc), vehicle: steriod suspending solution 101 % of control | dose: 200.0 mg/kg/injection, schedule: Q01DX001 (sc), vehicle: steriod suspending solution 95 % of control | dose: 400.0 mg/kg/injection, schedule: Q01DX001 (sc), vehicle: steriod suspending solution 101 % of control

NNc1c(F)c(F)c(NN)c(F)c1F
inactive: dose: 6.25 mg/kg/injection, schedule: Q04DX003 (ip), vehicle: Klucel (hydroxypropylcellulose) (HPC) 96 % of control | dose: 12.5 mg/kg/injection, schedule: Q04DX003 (ip), vehicle: Klucel (hydroxypropylcellulose) (HPC) 93 % of control | dose: 25.0 mg/kg/injection, schedule: Q04DX003 (ip), vehicle: Klucel (hydroxypropylcellulose) (HPC) 95 % of control
